# Measurements from patent US20160030407A1, “Method of Treating Inflammatory Lung Disease” (priority 2010, published 2016).
# Several values for one entry are separate records, joined by “and”; a condition that tells them apart may be missing. Equal values may be shown once.
# Legend:
# [1] = tested on: antibodies to PPD and thyroglobulin; experiment: Experimental Autoimmune Thyroiditis (Example 16A): serum antibodies to PPD and thyroglobulin; assay type: in vivo, mice
# Procedure: Thyroiditis was induced by injection of thyroglobulin emulsified in complete Freund's adjuvant […]. On days 0 and 7, female mice received subcutaneous injection of 100 μg thyroglobulin (2 injections of 50 μg each). Control mice drank water. […] Mice were sacrificed on day 21.
# Serum from control and anatabine-treated mice was examined to determine levels of antibodies to a foreign antigen (PPD).
# Levels of antibodies to thyroglobulin were examined on days 7, 14, and 21 after immunization.
# BACE-1 = BACE-1 protein expression in SHSY cells (Western blot); assay type: cell-based, human; conditions: 24 hours, corrected for actin
# [2] = tested on: antibodies against thyroglobulin; experiment: Autoimmune thyroiditis model (Example 16B): thyroglobulin antibodies; assay type: in vivo, CBA/J mice; conditions: 0.05 mg/ml in drinking water; day 21
# Procedure: In another experiment, eighteen CBA/J female mice were immunized with mouse thyroglobulin, emulsified in complete Freund's adjuvant, on day 0 and day 7. One group of mice (n=10) drank regular water. […] Mice were sacrificed 21 days after the first immunization to collect the thyroid gland and the blood. The thyroid was analyzed for the presence of infiltrating mononuclear cells. The blood was analyzed for the levels of antibodies against thyroglobulin.
# [3] = Treatment of a patient with autism and a seizure disorder; assay type: in vivo, human; conditions: one patient, 1.0 mg three times per day
# Excerpt: A patient, who was diagnosed with autism and a seizure disorder, had brain surgery and began rehabilitation the following month.
# [4] = tested on: phosphorylated p65 (NFκB); experiment: p65 phosphorylation in brain after intracranial TNFα; assay type: in vivo, mice (B6/SJL); conditions: mice, 2 mg/kg i.p., normalized to actin
# Procedure: After 5 minutes, mice were intracranially injected with 0.5 mg of TNFα. Mice were euthanized ten minutes after the intracranial injection. The portion of the brain surrounding the intracranial site of injection was collected, and proteins were extracted. Phosphorylation of p65 was measured with an antibody towards phosphorylated p65.
# [5] = Single i.v. dose toxicity: clinical chemistry; assay type: in vivo, Sprague-Dawley rats
# Excerpt: On day 15, urine was collected on all surviving animals for urinalysis. The animals were euthanized and bled via cardiac puncture. Blood was collected for hematology, clinical chemistry, and coagulation analysis. Tissues were collected, weighed, and stored in 10% neutral-buffered formalin for possible future analysis.
# [6] = 0.1 mg/kg anatabine, nicotine 0.75 mg/kg
# [7] = 0.1 mg/kg, gender F, group mean
# [8] = 0.1 mg/kg, gender M, group mean
# [9] = 0.75 mg/kg, gender F, group mean
# [10] = 0.75 mg/kg, gender M, group mean
# [11] = Anatabine 0.1 mg/kg single i.v. dose, female rats, individual animals B6-B10
# [12] = Anatabine 0.1 mg/kg single i.v. dose, male rats, individual animals B1-B5
smiles,measurement,setting,value
"C1=CCC(c2cccnc2)NC1 (racemic) [Anatabine, 1,2,3,6-tetrahydro-[2,3′]bipyridinyl]",antibodies to PPD vs control,[1]; 0.05 mg/ml in drinking water,no significant difference
same,antibodies to thyroglobulin vs control,[1]; day 7,no significant difference
same,antibodies to thyroglobulin vs control,"[1]; day 14, p=0.086",tended to have lower thyroglobulin antibodies
same,antibodies to thyroglobulin vs control,[1]; day 21,no significant difference
same,BACE-1 protein expression,BACE-1,reduced BACE expression
same,levels of thyroglobulin antibodies,[2],no effect on the levels of thyroglobulin antibodies
same,cognitive benefits,[3],improved communication and language skills and the ability to focus
same,frequency of seizures,[3]; over 3 weeks,decreased from one per day to approximately one per week
same,p65 phosphorylation in brain,[4],reduced p65 phosphorylation in mouse brain
same,"globulins vs vehicle controls, females",[5]; [6],slightly higher
same,"total protein vs vehicle controls, females",[5]; [6],somewhat higher
same,AST,[5]; [7],77.00 IU/L
same,DIR BILIRUBIN,[5]; [7],0.00 mg/dL
same,TOT BILIRUBIN,[5]; [7],0.00 mg/dL
same,AST,[5]; [8],96.00 IU/L
same,BUN,[5]; [8],18.00 mg/dL
same,DIR BILIRUBIN,[5]; [8],0.00 mg/dL
same,TOT BILIRUBIN,[5]; [8],0.00 mg/dL
same,TOT PROTEIN,[5]; [8],6.10 g/dL
same,DIR BILIRUBIN,[5]; [9],0.00 mg/dL
same,TOT BILIRUBIN,[5]; [9],0.00 mg/dL
same,DIR BILIRUBIN,[5]; [10],0.02 mg/dL
same,TOT BILIRUBIN,[5]; [10],0.02 mg/dL
same,ALBUMIN,[5]; [11],3.6 g/dL (3×) and 3.5 g/dL and 3.8 g/dL
same,ALK PHOSPHATASE,[5]; [11],140 IU/L and 220 IU/L
same,ALT,[5]; [11],57 IU/L and 43 IU/L and 47 IU/L and 62 IU/L and 39 IU/L
same,AST,[5]; [11],78 IU/L and 69 IU/L and 70 IU/L and 86 IU/L and 82 IU/L
same,BUN,[5]; [11],21 mg/dL (2×) and 19 mg/dL (3×)
same,CHLORIDE,[5]; [11],99 mEq/L and 97 mEq/L
same,CHOLESTEROL,[5]; [11],90 mg/dL and 74 mg/dL and 65 mg/dL and 66 mg/dL and 87 mg/dL
same,CREATININE,[5]; [11],0.4 mg/dL (3×) and 0.5 mg/dL (2×)
same,DIR BILIRUBIN,[5]; [11],0 mg/dL
same,GLOBULIN,[5]; [11],3.1 g/dL (3×) and 3 g/dL
same,GLUCOSE,[5]; [11],170 mg/dL and 220 mg/dL
same,PHOSPHORUS,[5]; [11],8.5 mg/dL (2×) and 8.2 mg/dL and 7.4 mg/dL and 7.8 mg/dL
same,POTASSIUM,[5]; [11],5.4 mEq/L and 6.3 mEq/L and 5.2 mEq/L and 5.5 mEq/L and 6.7 mEq/L
same,TOT BILIRUBIN,[5]; [11],0 mg/dL
same,TOT PROTEIN,[5]; [11],6.7 g/dL (2×) and 6.3 g/dL and 6.9 g/dL and 6.6 g/dL
same,ALBUMIN,[5]; [12],3.4 g/dL (2×) and 3.2 g/dL and 3.1 g/dL (2×)
same,ALK PHOSPHATASE,[5]; [12],470 IU/L
same,ALT,[5]; [12],92 IU/L and 65 IU/L and 74 IU/L and 44 IU/L and 78 IU/L
same,AST,[5]; [12],97 IU/L and 99 IU/L and 93 IU/L and 85 IU/L
same,BUN,[5]; [12],18 mg/dL (2×) and 21 mg/dL and 14 mg/dL and 19 mg/dL
same,CHLORIDE,[5]; [12],98 mEq/L and 97 mEq/L (2×) and 99 mEq/L (2×)
same,CHOLESTEROL,[5]; [12],65 mg/dL and 64 mg/dL and 75 mg/dL and 56 mg/dL and 76 mg/dL
same,CREATININE,[5]; [12],0.4 mg/dL (3×) and 0.3 mg/dL (2×)
